Laboratory results: patent publication US20240174723A1, “STAPLED ANTIMICROBIAL PEPTIDES (STAMPS) AND USES THEREOF” (Lytica Therapeutics, Inc., priority 2021, published 2024)
Converted amounts (≈) assume the structure as drawn. Positions of bridges follow the written chain, without caps; N, C: chain ends. Non-standard residues stand in square brackets, D forms with d. Residues, ends and D or L forms follow the SMILES beside them. S5 = C=CCCC[C@](C)(N)C(=O)O; Orn = NCCC[C@H](N)C(=O)O; Dab = NCC[C@H](N)C(=O)O; Dap = NC[C@H](N)C(=O)O

What was measured:
[1] = in vitro; format: cell-based; details: human, Inhibitory Concentration at 50% Cytotoxicity (IC50) Human Liver Cells (HepG2)
Summary of the method: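 Cytotoxicity read by CellTiter-Glo luminescence after 48 h at 37 °C exposure to serially diluted StAMPs or vehicle. HepG2 cells were grown in EMEM plus 10% FBS and given 4 h to attach before dosing; peptides came from a 5 mg/mL aqueous stock.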

[2] = system: E. coli; format: cell-based, Escherichia coli
Summary of the method: (§1)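 MIC by CLSI-adapted microbroth dilution; MHB or MHB II; inoculum 5×10^5 CFU/ml final; 20-24 h, 37 °C; endpoint = no visible growth.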

[3] = system: K. pneumoniae; format: cell-based, Klebsiella pneumoniae
Summary of the method: as §1

[4] = system: P. aeruginosa; format: cell-based, Pseudomonas aeruginosa
Summary of the method: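 MIC taken as lowest peptide concentration with no visible growth after 20-24 h at 37 °C. Peptide serial dilutions from water stocks met P. aeruginosa inoculum (5×10^5 CFU/ml final) in MHB or MHB II, per a CLSI-adapted microbroth protocol.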

[5] = system: S. aureus; format: cell-based, Staphylococcus aureus
Summary of the method: as §1

[6] = system: A. baumannii; format: cell-based, Acinetobacter baumannii
Summary of the method: as §1

[7] = in vitro; format: cell-based; details: human
Summary of the method: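 LDH release (absorbance at 490 nm) measured in the media of cells treated with serially diluted StAMPs or vehicle at 37 °C: 90 min for renal RPTEC, 48 h for liver HepG2. Cells were seeded overnight beforehand and media refreshed before dosing.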

Row | SMILES | Minimum Inhibitory Concentration (MIC) E. coli [2] | Minimum Inhibitory Concentration (MIC) K. pneumoniae [3] | Minimum Inhibitory Concentration (MIC) P. aeruginosa [4] | Minimum Inhibitory Concentration (MIC) S. aureus [5] | Minimum Inhibitory Concentration (MIC) A. baumannii [6] | IC50 at 90 min [7] | IC50 at 48 hours [1]
1 | CC(C)[C@@H]1NC(=O)[C@@](C)(NC(=O)[C@H](C)NC(=O)[C@H](CCCCN)NC(=O)CNC(=O)[C@H](Cc2ccccc2)NC(=O)[C@H](CCCCN)NC(=O)[C@H](CCCCN)NC(=O)[C@H](CCCCN)NC(=O)[C@H](CO)NC(=O)[C@H](CCCCN)NC(=O)[C@]2(C)CCCC=CCCC[C@](C)(NC(=O)CN)C(=O)NCC(=O)N[C@@H](CCCCN)C(=O)N[C@@H](Cc3ccccc3)C(=O)N2)CCCC=CCCC[C@@](C)(C(=O)N[C@@H](C)C(=O)N[C@@H](CCCCN)C(=O)N[C@@H](CCCCN)C(N)=O)NC(=O)[C@H](CCC(=O)O)NC(=O)[C@H](Cc2ccccc2)NC1=O [compound 20] (H-G[S5]GKF[S5]KSKKKFGKA[S5]VFE[S5]AKK-NH2; staple 2-6, 16-20) | 2 µg/mL | 2 µg/mL | 2 µg/mL | 64 µg/mL | 2 µg/mL | 70 µg/mL (≈ 26.8 µM) | 105 µg/mL (≈ 40.2 µM)
2 | CC(C)[C@@H]1NC(=O)[C@H](C(C)C)NC(=O)[C@@](C)(NC(=O)[C@H](C)NC(=O)[C@H](CCCCN)NC(=O)CNC(=O)[C@H](Cc2ccccc2)NC(=O)[C@H](CCCCN)NC(=O)[C@H](CCCCN)NC(=O)[C@H](CCCCN)NC(=O)[C@H](CCCCN)NC(=O)[C@H](Cc2c[nH]cn2)NC(=O)[C@]2(C)CCCC=CCCC[C@](C)(NC(=O)CN)C(=O)NCC(=O)N[C@@H](CCCCN)C(=O)N[C@@H](Cc3ccccc3)C(=O)N2)CCCC=CCCC[C@@](C)(C(=O)N[C@@H](C)C(=O)N[C@@H](CCCCN)C(=O)N[C@@H](CCCCN)C(N)=O)NC(=O)[C@H](CCC(=O)O)NC1=O [compound 21] (H-G[S5]GKF[S5]HKKKKFGKA[S5]VVE[S5]AKK-NH2; staple 2-6, 16-20) | 2 µg/mL | 4 µg/mL | 4 µg/mL | >64 µg/mL | 2 µg/mL | 251 µg/mL (≈ 96 µM) | 208 µg/mL (≈ 79.5 µM)
3 | CC(C)[C@@H]1NC(=O)[C@@](C)(NC(=O)[C@H](C)NC(=O)[C@H](CCCCN)NC(=O)CNC(=O)[C@H](Cc2ccccc2)NC(=O)[C@H](CCCCN)NC(=O)[C@H](CCCCN)NC(=O)[C@H](CCCCN)NC(=O)[C@H](CCCCN)NC(=O)[C@H](Cc2c[nH]cn2)NC(=O)[C@]2(C)CCCC=CCCC[C@](C)(NC(=O)CN)C(=O)NCC(=O)N[C@@H](CCCCN)C(=O)N[C@@H](Cc3ccccc3)C(=O)N2)CCCC=CCCC[C@@](C)(C(=O)N[C@@H](C)C(=O)N[C@@H](CCCCN)C(=O)N[C@@H](CCCCN)C(N)=O)NC(=O)[C@H](CCC(=O)O)NC(=O)[C@H](Cc2ccccc2)NC1=O [compound 22] (H-G[S5]GKF[S5]HKKKKFGKA[S5]VFE[S5]AKK-NH2; staple 2-6, 16-20) | 2 µg/mL | 4 µg/mL | 4 µg/mL | >64 µg/mL | 3 µg/mL | 202 µg/mL (≈ 75.8 µM) | > 200 µg/mL
4 | CC(C)[C@@H]1NC(=O)[C@@](C)(NC(=O)[C@H](C)NC(=O)[C@H](CCN)NC(=O)CNC(=O)[C@H](Cc2ccccc2)NC(=O)[C@H](CCN)NC(=O)[C@H](CCN)NC(=O)[C@H](CCN)NC(=O)[C@H](CCN)NC(=O)[C@H](CCN)NC(=O)[C@]2(C)CCCC=CCCC[C@](C)(NC(=O)CN)C(=O)NCC(=O)N[C@@H](CCN)C(=O)N[C@@H](Cc3ccccc3)C(=O)N2)CCCC=CCCC[C@@](C)(C(=O)N[C@@H](C)C(=O)N[C@@H](CCN)C(=O)N[C@@H](CCN)C(N)=O)NC(=O)[C@H](CCC(=O)O)NC(=O)CNC1=O [compound 23] (H-G[S5]G[Dab]F[S5][Dab][Dab][Dab][Dab][Dab]FG[Dab]A[S5]VGE[S5]A[Dab][Dab]-NH2; staple 2-6, 16-20) | 8 µg/mL | 32 µg/mL | 2 µg/mL | 64 µg/mL | 8 µg/mL | 84 µg/mL (≈ 36.3 µM) | 39 µg/mL (≈ 16.9 µM)
5 | CC(C)[C@@H]1NC(=O)[C@@](C)(NC(=O)[C@H](C)NC(=O)[C@H](CN)NC(=O)CNC(=O)[C@H](Cc2ccccc2)NC(=O)[C@H](CN)NC(=O)[C@H](CN)NC(=O)[C@H](CN)NC(=O)[C@H](CN)NC(=O)[C@H](CN)NC(=O)[C@]2(C)CCCC=CCCC[C@](C)(NC(=O)CN)C(=O)NCC(=O)N[C@@H](CN)C(=O)N[C@@H](Cc3ccccc3)C(=O)N2)CCCC=CCCC[C@@](C)(C(=O)N[C@@H](C)C(=O)N[C@@H](CN)C(=O)N[C@@H](CN)C(N)=O)NC(=O)[C@H](CCC(=O)O)NC(=O)CNC1=O [compound 25] (H-G[S5]G[Dap]F[S5][Dap][Dap][Dap][Dap][Dap]FG[Dap]A[S5]VGE[S5]A[Dap][Dap]-NH2; staple 2-6, 16-20) | 4 µg/mL | 16 µg/mL | 4 µg/mL | >64 µg/mL | 32 µg/mL | > 800 µg/mL | > 200 µg/mL

Second part, led by results:

Row | Minimum Inhibitory Concentration (MIC) E. coli [2] | Minimum Inhibitory Concentration (MIC) K. pneumoniae [3] | Minimum Inhibitory Concentration (MIC) P. aeruginosa [4] | Minimum Inhibitory Concentration (MIC) S. aureus [5] | Minimum Inhibitory Concentration (MIC) A. baumannii [6] | IC50 at 90 min [7] | SMILES | IC50 at 48 hours [1]
6 | 2 µg/mL | 4 µg/mL | 4 µg/mL | >64 µg/mL | 2 µg/mL | 92 µg/mL (≈ 35.9 µM) | CC(C)[C@@H]1NC(=O)[C@H](C(C)C)NC(=O)[C@@](C)(NC(=O)[C@H](C)NC(=O)[C@H](CCCCN)NC(=O)CNC(=O)[C@H](Cc2ccccc2)NC(=O)[C@H](CCCCN)NC(=O)[C@H](CCCCN)NC(=O)[C@H](CCCCN)NC(=O)[C@H](CO)NC(=O)[C@H](CCCCN)NC(=O)[C@]2(C)CCCC=CCCC[C@](C)(NC(=O)CN)C(=O)NCC(=O)N[C@@H](CCCCN)C(=O)N[C@@H](Cc3ccccc3)C(=O)N2)CCCC=CCCC[C@@](C)(C(=O)N[C@@H](C)C(=O)N[C@@H](CCCCN)C(=O)N[C@@H](CCCCN)C(N)=O)NC(=O)[C@H](CCC(=O)O)NC1=O [compound 19] (H-G[S5]GKF[S5]KSKKKFGKA[S5]VVE[S5]AKK-NH2; staple 2-6, 16-20) | 95 µg/mL (≈ 37 µM)
7 | 4 µg/mL | 32 µg/mL | 2 µg/mL | 64 µg/mL | 2 µg/mL | 100 µg/mL (≈ 41 µM) | CC(C)[C@@H]1NC(=O)[C@@](C)(NC(=O)[C@H](C)NC(=O)[C@H](CCCN)NC(=O)CNC(=O)[C@H](Cc2ccccc2)NC(=O)[C@H](CCCN)NC(=O)[C@H](CCCN)NC(=O)[C@H](CCCN)NC(=O)[C@H](CCCN)NC(=O)[C@H](CCCN)NC(=O)[C@]2(C)CCCC=CCCC[C@](C)(NC(=O)CN)C(=O)NCC(=O)N[C@@H](CCCN)C(=O)N[C@@H](Cc3ccccc3)C(=O)N2)CCCC=CCCC[C@@](C)(C(=O)N[C@@H](C)C(=O)N[C@@H](CCCN)C(=O)N[C@@H](CCCN)C(N)=O)NC(=O)[C@H](CCC(=O)O)NC(=O)CNC1=O [compound 24] (H-G[S5]G[Orn]F[S5][Orn][Orn][Orn][Orn][Orn]FG[Orn]A[S5]VGE[S5]A[Orn][Orn]-NH2; staple 2-6, 16-20) | 44 µg/mL (≈ 18 µM)
8 | 4 µg/mL | 32 µg/mL | 4 µg/mL | >64 µg/mL | 4 µg/mL | 366 µg/mL (≈ 130 µM) | CC(C)[C@@H]1NC(=O)[C@@](C)(NC(=O)[C@H](C)NC(=O)[C@H](CCCCN)NC(=O)CNC(=O)[C@H](Cc2ccccc2)NC(=O)[C@H](CCCCN)NC(=O)[C@H](CCCCN)NC(=O)[C@H](CCCCN)NC(=O)[C@H](CCCCN)NC(=O)[C@H](CCCCN)NC(=O)[C@]2(C)CCCC=CCCC[C@](C)(NC(=O)CN)C(=O)NCC(=O)N[C@@H](CCCCN)C(=O)N[C@@H](Cc3ccccc3)C(=O)N2)CCCC=CCCC[C@@](C)(C(=O)N[C@@H](C)C(=O)N[C@@H](CCCCN)C(=O)N[C@@H](CCCCN)C(=O)NCC(=O)NCC(=O)N[C@@H](CCC(=O)O)C(N)=O)NC(=O)[C@H](CCC(=O)O)NC(=O)CNC1=O [compound 26] (H-G[S5]GKF[S5]KKKKKFGKA[S5]VGE[S5]AKKGGE-NH2; staple 2-6, 16-20) | 354 µg/mL (≈ 126 µM)
